1 molecule from US20250041195A1, “COLLAGEN TYPE III COMPOSITION PREPARED FROM FIBROBLAST EXTRACELLULAR MATRIX” (SINO UNITED (BEIJING) BIOMEDICAL TECHNOLOGY CO., LTD., priority 2022, published 2025) can be followed below.

For data set [1], the system named is mice. Kind of data set: General chronic toxicology study in mice. Type of data set: in vivo. As to conditions: duration ≥6 months, ICH S4 guidelines. The text has this: The Fmoc polypeptide synthesis method is a conventional method used by a person skilled in the art to prepare a polypeptide. In the case that a person skilled in the art knows that the polypeptide to be prepared needs to comprise an amino acid sequence as shown in EMHKMEPCPMYRRHLG, in combination with the existing Fmoc polypeptide synthesis method, the polypeptide to be protected in the present application may be obtained.

In data set [2] the test system is human fibroblasts. Type of data set: cell-based. Conditions: 48 h, 200 μg/mL. As for the experimental part: The active polypeptide of the present application with a sequence of EMHKMEPCPMYRRHLG was serially diluted in a 96-well cell culture plate to 5, 10, 25, 50, 100, 200 μg/mL, with 5 duplicated wells per concentration. The above operations were all performed under sterile conditions.
For the passage of the cell lines isolated in Example 1, the cell culture medium was firstly poured out, and the cells were washed twice with 2 mL of PBS. The liquid was discarded, and 1 mL of 0.25% (mass fraction) trypsin solution was added for digestion for 3 min until the cells were completely detached. […] The cell solution was adjusted to a concentration of 5.0×10^5 cells/mL and cultured at 37° C. under 5% carbon dioxide and saturated humidity conditions. After 24 h of passaging, the cells were used for pharmacological activity assay. The above operations were all performed under sterile conditions.
The cells were inoculated into a 96-well cell culture plate, with 100 μL per well, and incubated at 37° C. under 5% carbon dioxide and saturated humidity conditions. […] The absorbance was determined at 570 nm by a microplate reader, with 630 nm as a reference wavelength. The results were recorded and the cell viability was calculated according to the following formula: cell viability=(absorbance A570 of the experimental group/absorbance A570 of the blank control group)×100%.

Each structure is given as a SMILES string. Where a SMILES comes first, the peptide text is derived from it.

Consider `CSCC[C@H](NC(=O)[C@H](CCCCN)NC(=O)[C@H](Cc1c[nH]cn1)NC(=O)[C@H](CCSC)NC(=O)[C@@H](N)CCC(=O)O)C(=O)N[C@@H](CCC(=O)O)C(=O)N1CCC[C@H]1C(=O)N[C@@H](CS)C(=O)N1CCC[C@H]1C(=O)N[C@@H](CCSC)C(=O)N[C@@H](Cc1ccc(O)cc1)C(=O)N[C@@H](CCCNC(=N)N)C(=O)N[C@@H](CCCNC(=N)N)C(=O)N[C@@H](Cc1c[nH]cn1)C(=O)N[C@@H](CC(C)C)C(=O)NCC(=O)O` [active polypeptide, EMHKMEPCPMYRRHLG] (H-EMHKMEPCPMYRRHLG-OH), for which the “toxic side effects in general chronic toxicology study” value in data set [1] is recorded as “no significant toxic side effects”. In data set [2], the cell viability is recorded as 265.3%±4.52.
